Source: patent publication US20130121994A1, “TRIAZOLOPYRIDINE DERIVATIVES” (BAYER INTELLECTUAL PROPERTY GMBH, priority 2009, published 2013)

Biological target: T1, human kinase Mps-1 (Homo sapiens, UniProt P33981)
T1 construct: N-terminally GST-tagged human full length recombinant Mps-1 kinase; GST (N); purchased Invitrogen, Karslruhe, Germany PV4071
T1 sequence (P33981 1-857): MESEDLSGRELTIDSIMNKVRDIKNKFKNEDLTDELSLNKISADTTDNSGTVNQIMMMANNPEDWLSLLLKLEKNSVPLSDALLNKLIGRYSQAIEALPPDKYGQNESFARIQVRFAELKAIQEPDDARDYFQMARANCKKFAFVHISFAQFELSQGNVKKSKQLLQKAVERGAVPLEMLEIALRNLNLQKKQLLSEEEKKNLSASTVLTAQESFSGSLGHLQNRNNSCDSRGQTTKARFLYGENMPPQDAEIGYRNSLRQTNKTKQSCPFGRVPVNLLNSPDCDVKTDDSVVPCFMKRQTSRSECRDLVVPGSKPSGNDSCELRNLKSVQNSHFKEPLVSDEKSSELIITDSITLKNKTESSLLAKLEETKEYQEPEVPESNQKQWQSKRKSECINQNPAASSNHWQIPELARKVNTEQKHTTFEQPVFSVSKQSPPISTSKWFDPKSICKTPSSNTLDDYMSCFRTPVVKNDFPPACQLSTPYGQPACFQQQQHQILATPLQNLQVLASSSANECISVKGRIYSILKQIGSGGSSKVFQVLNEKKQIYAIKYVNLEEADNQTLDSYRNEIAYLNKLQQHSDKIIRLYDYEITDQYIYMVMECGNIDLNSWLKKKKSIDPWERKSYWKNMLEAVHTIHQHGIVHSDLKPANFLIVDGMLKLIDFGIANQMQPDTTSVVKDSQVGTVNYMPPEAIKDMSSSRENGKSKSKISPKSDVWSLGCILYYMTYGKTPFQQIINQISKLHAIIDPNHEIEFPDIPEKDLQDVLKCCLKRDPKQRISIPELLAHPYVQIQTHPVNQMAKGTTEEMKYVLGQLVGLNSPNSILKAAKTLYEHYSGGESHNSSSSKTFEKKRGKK
Test: Mps-1 kinase assay (HTRF)
Type: biochemical

O=C(NCCO)c1ccc(Nc2nc3ccc(-c4ccc(C(=O)NCC(F)(F)F)cc4)cn3n2)c(OCC(F)(F)F)c1 [Example 11.037, N-(2-hydroxyethyl)-3-(2,2,2-trifluoroethoxy)-4-[(6-{4-[(2,2,2-trifluoroethyl)carbamoyl]phenyl}[1,2,4]triazolo [1,5-a]pyridin-2-yl)amino]benzamide]
IC50: ≤ 1 nM

CCN(CC)C(=O)c1ccc(Nc2nc3ccc(-c4ccc(C(=O)NCC(F)(F)F)cc4)cn3n2)cc1 [Example 11.038, N,N-diethyl-4-[(6-{4-[(2,2,2-trifluoroethyl)carbamoyl]phenyl}[1,2,4]triazolo [1,5-a]pyridin-2-yl)amino]benzamide]
IC50: 10.5 nM

C[C@@H](NC(=O)c1cccc(-c2ccc3nc(Nc4ccccc4C#N)nn3c2)c1)C(C)(C)C [Example 11.039, 3-{2-[(2-cyanophenyl)amino][1,2,4]triazolo[1,5-a]pyridin-6-yl}-N-[(2R)-3,3-dimethylbutan-2-yl]benzamide]
IC50: 1.71 nM

C[C@@H](NC(=O)c1cccc(-c2ccc3nc(Nc4ccccc4C#N)nn3c2)c1)C(F)(F)F [Example 11.040, 3-{2-[(2-cyanophenyl)amino][1,2,4]triazolo[1,5-a]pyridin-6-yl}-N-[(2R)-1,1,1-trifluoropropan-2-yl]benzamide]
IC50: 1.27 nM

CC(F)(F)CNC(=O)c1cccc(-c2ccc3nc(Nc4ccccc4C#N)nn3c2)c1 [Example 11.041, 3-{2-[(2-cyanophenyl)amino][1,2,4]triazolo[1,5-a]pyridin-6-yl}-N-(2,2-difluoropropyl)benzamide]
IC50: 2.54 nM

CC(C)(C)CNC(=O)c1cccc(-c2ccc3nc(Nc4ccccc4C#N)nn3c2)c1 [Example 11.042, 3-{2-[(2-cyanophenyl)amino][1,2,4]triazolo[1,5-a]pyridin-6-yl}-N-(2,2-dimethylpropyl)benzamide]
IC50: ≤ 1 nM

N#Cc1ccccc1Nc1nc2ccc(-c3cccc(C(=O)NCC(F)(F)C(F)(F)F)c3)cn2n1 [Example 11.043, 3-{2-[(2-cyanophenyl)amino][1,2,4]triazolo[1,5-a]pyridin-6-yl}-N-(2,2,3,3,3-pentafluoropropyl)benzamide]
IC50: ≤ 1 nM

N#Cc1ccccc1Nc1nc2ccc(-c3cccc(C(=O)NCC(F)(F)F)c3)cn2n1 [Example 11.044, 3-{2-[(2-cyanophenyl)amino][1,2,4]triazolo[1,5-a]pyridin-6-yl}-N-(2,2,2-trifluoroethyl)benzamide]
IC50: 1.47 nM

CC(C)(C)NC(=O)c1cccc(-c2ccc3nc(Nc4ccccc4C#N)nn3c2)c1 [Example 11.045, N-tert-butyl-3-{2-[(2-cyanophenyl)amino][1,2,4]triazolo[1,5-a]pyridin-6-yl}benzamide]
IC50: 1.18 nM

CC(C)(CO)NC(=O)c1cccc(-c2ccc3nc(Nc4ccccc4C#N)nn3c2)c1 [Example 11.046, 3-{2-[(2-cyanophenyl)amino][1,2,4]triazolo[1,5-a]pyridin-6-yl}-N-(1-hydroxy-2-methylpropan-2-yl)benzamide]
IC50: 3.29 nM

CC(C)[C@@H](C)NC(=O)c1cccc(-c2ccc3nc(Nc4ccccc4C#N)nn3c2)c1 [Example 11.047, 3-{2-[(2-cyanophenyl)amino][1,2,4]triazolo[1,5-a]pyridin-6-yl}-N-[(2R)-3-methylbutan-2-yl]benzamide]
IC50: 4.15 nM

N#Cc1ccccc1Nc1nc2ccc(-c3cccc(C(=O)NCCC(F)(F)F)c3)cn2n1 [Example 11.048, 3-{2-[(2-cyanophenyl)amino][1,2,4]triazolo[1,5-a]pyridin-6-yl}-N-(3,3,3-trifluoropropyl)benzamide]
IC50: 3.95 nM

CC(C)CNC(=O)c1cccc(-c2ccc3nc(Nc4ccccc4C#N)nn3c2)c1 [Example 11.049, 3-{2-[(2-cyanophenyl)amino][1,2,4]triazolo[1,5-a]pyridin-6-yl}-N-isobutylbenzamide]
IC50: 3.39 nM

N#Cc1ccccc1Nc1nc2ccc(-c3cccc(C(=O)NCC(F)F)c3)cn2n1 [Example 11.050, 3-{2-[(2-cyanophenyl)amino][1,2,4]triazolo[1,5-a]pyridin-6-yl}-N-(2,2-difluoroethyl)benzamide]
IC50: 4.18 nM

CC(C)[C@H](C)NC(=O)c1cccc(-c2ccc3nc(Nc4ccccc4C#N)nn3c2)c1 [Example 11.051, 3-{2-[(2-cyanophenyl)amino][1,2,4]triazolo[1,5-a]pyridin-6-yl}-N-[(2S)-3-methylbutan-2-yl]benzamide]
IC50: 5.68 nM

CCCNC(=O)c1cccc(-c2ccc3nc(Nc4ccccc4C#N)nn3c2)c1 [Example 11.052, 3-{2-[(2-cyanophenyl)amino][1,2,4]triazolo[1,5-a]pyridin-6-yl}-N-propylbenzamide]
IC50: 6.37 nM

N#Cc1ccccc1Nc1nc2ccc(-c3cccc(C(=O)NCCF)c3)cn2n1 [Example 11.054, 3-{2-[(2-cyanophenyl)amino][1,2,4]triazolo[1,5-a]pyridin-6-yl}-N-(2-fluoroethyl)benzamide]
IC50: 6.13 nM

CC(C)(C)CCNC(=O)c1cccc(-c2ccc3nc(Nc4ccccc4C#N)nn3c2)c1 [Example 11.055, 3-{2-[(2-cyanophenyl)amino][1,2,4]triazolo[1,5-a]pyridin-6-yl}-N-(3,3-dimethylbutyl)benzamide]
IC50: 9.81 nM

CC(C)(C)CNC(=O)c1cc(F)cc(-c2ccc3nc(Nc4ccccc4C#N)nn3c2)c1 [Example 11.056, 3-{2-[(2-cyanophenyl)amino][1,2,4]triazolo[1,5-a]pyridin-6-yl}-N-(2,2-dimethylpropyl)-5-fluorobenzamide]
IC50: 9.21 nM

C[C@H](NC(=O)c1cccc(-c2ccc3nc(Nc4ccccc4C#N)nn3c2)c1)C(C)(C)C [Example 11.057, 3-{2-[(2-cyanophenyl)amino][1,2,4]triazolo[1,5-a]pyridin-6-yl}-N-[(2S)-3,3-dimethylbutan-2-yl]benzamide]
IC50: 12.2 nM

CC(C)(C)CNC(=O)c1cccc(-c2ccc3nc(Nc4ccccc4C#N)nn3c2)c1F [Example 11.058, 3-{2-[(2-cyanophenyl)amino][1,2,4]triazolo[1,5-a]pyridin-6-yl}-N-(2,2-dimethylpropyl)-2-fluorobenzamide]
IC50: 12.8 nM

N#Cc1ccccc1Nc1nc2ccc(-c3cc(F)cc(C(=O)NCC(F)(F)F)c3)cn2n1 [Example 11.059, 3-{2-[(2-cyanophenyl)amino][1,2,4]triazolo[1,5-a]pyridin-6-yl}-5-fluoro-N-(2,2,2-trifluoroethyl)benzamide]
IC50: 12.6 nM

COC(C)(C)CNC(=O)c1cccc(-c2ccc3nc(Nc4ccccc4C#N)nn3c2)c1 [Example 11.060, 3-{2-[(2-cyanophenyl)amino][1,2,4]triazolo[1,5-a]pyridin-6-yl}-N-(2-methoxy-2-methylpropyl)benzamide]
IC50: 9.04 nM

N#Cc1ccccc1Nc1nc2ccc(-c3cccc(C(=O)NCC(F)(F)F)c3F)cn2n1 [Example 11.061, 3-{2-[(2-cyanophenyl)amino][1,2,4]triazolo[1,5-a]pyridin-6-yl}-2-fluoro-N-(2,2,2-trifluoroethyl)benzamide]
IC50: 12.9 nM

CC(C)(O)CNC(=O)c1cccc(-c2ccc3nc(Nc4ccccc4C#N)nn3c2)c1 [Example 11.062, 3-{2-[(2-cyanophenyl)amino][1,2,4]triazolo[1,5-a]pyridin-6-yl}-N-(2-hydroxy-2-methylpropyl)benzamide]
IC50: 13.9 nM

N#Cc1ccccc1Nc1nc2ccc(-c3cccc(C(=O)NCC(F)(F)C(F)(F)F)c3F)cn2n1 [Example 11.063, 3-{2-[(2-cyanophenyl)amino][1,2,4]triazolo[1,5-a]pyridin-6-yl}-2-fluoro-N-(2,2,3,3,3-pentafluoropropyl)benzamide]
IC50: 17.3 nM

C[C@H](NC(=O)c1cccc(-c2ccc3nc(Nc4ccccc4C#N)nn3c2)c1)C(F)(F)F [Example 11.064, 3-{2-[(2-cyanophenyl)amino][1,2,4]triazolo[1,5-a]pyridin-6-yl}-N-[(2S)-1,1,1-trifluoropropan-2-yl]benzamide]
IC50: 26.5 nM

CC(C)(C)NC(=O)c1cccc(-c2ccc3nc(Nc4ccccc4C#N)nn3c2)c1F [Example 11.065, N-tert-butyl-3-{2-[(2-cyanophenyl)amino][1,2,4]triazolo[1,5-a]pyridin-6-yl}-2-fluorobenzamide]
IC50: 18.2 nM

CC(F)(F)CNC(=O)c1cccc(-c2ccc3nc(Nc4ccccc4C#N)nn3c2)c1F [Example 11.066, 3-{2-[(2-cyanophenyl)amino][1,2,4]triazolo[1,5-a]pyridin-6-yl}-N-(2,2-difluoropropyl)-2-fluorobenzamide]
IC50: 26.7 nM

N#Cc1ccccc1Nc1nc2ccc(-c3cccc(C(=O)NCCC(F)(F)F)c3F)cn2n1 [Example 11.067, 3-{2-[(2-cyanophenyl)amino][1,2,4]triazolo[1,5-a]pyridin-6-yl}-2-fluoro-N-(3,3,3-trifluoropropyl)benzamide]
IC50: 23.9 nM

COCCNC(=O)c1cccc(-c2ccc3nc(Nc4ccccc4C#N)nn3c2)c1 [Example 11.068, 3-{2-[(2-cyanophenyl)amino][1,2,4]triazolo[1,5-a]pyridin-6-yl}-N-(2-methoxyethyl)benzamide]
IC50: 24.7 nM
